Measurements as given in the supplement of paper PMC10307832.

Tests used:
Assay in all cases: relative viability (nuclei count vs DMSO), 5 days (fraction); higher = more cells survive
[1] = compound: COc1cc(-c2nn([C@H]3CC[C@H](N4CCN(C(C)=O)CC4)CC3)c3ncnc(N)c23)ccc1NC(=O)c1cc2ccccc2n1C + N=C(N)NC(=N)NCCc1ccccc1 [Phenformin] (partner 250 µM)
In short: (§1)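 Each reported value is a median over duplicate plates. It expresses relative viability: treated-well nuclei count divided by vehicle-well nuclei count. Lung cancer cell lines in 1536-well plates were dosed by pin tool a day after seeding, alone with one drug or with a fixed anchor-drug dose plus five library-drug doses (not always all listed) in √10 steps, and nuclei were counted after 5 days.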

Midostaurin + AZD7762 = compound: CO[C@@H]1[C@H](N(C)C(=O)c2ccccc2)C[C@H]2O[C@]1(C)n1c3ccccc3c3c4c(c5c6ccccc6n2c5c31)C(=O)NC4 [Midostaurin] + NC(=O)Nc1cc(-c2cccc(F)c2)sc1C(=O)N[C@H]1CCCNC1 [AZD7762] (partner 0.2 µM)
In short: as §1

Midostaurin + Luminespib = compound: CO[C@@H]1[C@H](N(C)C(=O)c2ccccc2)C[C@H]2O[C@]1(C)n1c3ccccc3c3c4c(c5c6ccccc6n2c5c31)C(=O)NC4 [Midostaurin] + CCNC(=O)c1noc(-c2cc(C(C)C)c(O)cc2O)c1-c1ccc(CN2CCOCC2)cc1 [Luminespib] (partner 0.01 µM)
In short: as §1

Midostaurin + Trametinib = compound: CO[C@@H]1[C@H](N(C)C(=O)c2ccccc2)C[C@H]2O[C@]1(C)n1c3ccccc3c3c4c(c5c6ccccc6n2c5c31)C(=O)NC4 [Midostaurin] + CC(=O)Nc1cccc(-n2c(=O)n(C3CC3)c(=O)c3c(Nc4ccc(I)cc4F)n(C)c(=O)c(C)c32)c1 [Trametinib] (partner 0.02 µM)
In short: as §1

[2] = compound: COc1cc(-c2nn([C@H]3CC[C@H](N4CCN(C(C)=O)CC4)CC3)c3ncnc(N)c23)ccc1NC(=O)c1cc2ccccc2n1C + O=C(c1cc(Cc2n[nH]c(=O)c3ccccc23)ccc1F)N1CCN(C(=O)C2CC2)CC1 [Olaparib] (partner 8 µM)
In short: as §1

Row | Cell Line | relative viability ([1]; first compound 0.0128 µM) | relative viability ([1]; first compound 0.04048 µM) | relative viability ([1]; first compound 0.128 µM) | relative viability ([1]; first compound 1.28 µM) | relative viability (Midostaurin + AZD7762; first compound 0.01 µM) | relative viability (Midostaurin + AZD7762; first compound 0.03162 µM) | relative viability (Midostaurin + AZD7762; first compound 0.1 µM) | relative viability (Midostaurin + AZD7762; first compound 0.3162 µM) | relative viability (Midostaurin + Luminespib; first compound 0.01 µM) | relative viability (Midostaurin + Luminespib; first compound 0.03162 µM) | relative viability (Midostaurin + Luminespib; first compound 0.1 µM) | relative viability (Midostaurin + Luminespib; first compound 0.3162 µM) | relative viability (Midostaurin + Trametinib; first compound 0.01 µM) | relative viability (Midostaurin + Trametinib; first compound 0.03162 µM) | relative viability (Midostaurin + Trametinib; first compound 0.1 µM) | relative viability (Midostaurin + Trametinib; first compound 0.3162 µM) | relative viability ([2]; first compound 0.0128 µM) | relative viability ([2]; first compound 0.04048 µM) | relative viability ([2]; first compound 0.128 µM) | relative viability ([2]; first compound 1.28 µM)
1 | NCI-H838 | 0.694 | 0.53 | 0.509 | 0.388 | 0.843 | 0.892 | 0.848 | 0.865 | 0.32 | 0.362 | 0.322 | 0.299 | 0.518 | 0.562 | 0.412 | 0.311 | 0.799 | 0.807 | 0.741 | 0.471
2 | NCI-H1355 | 0.476 | 0.401 | 0.459 | 0.41 | 0.703 | 0.798 | 0.766 | 0.674 | 0.682 | 0.762 | 0.666 | 0.702 | 0.413 | 0.459 | 0.477 | 0.487 | 0.798 | 0.831 | 0.756 | 0.684
3 | NCI-H1395 | 0.419 | 0.461 | 0.431 | 0.395 | 0.407 | 0.427 | 0.408 | 0.429 | 0.837 | 0.702 | 0.573 | 0.665 | 0.978 | 0.991 | 1.15 | 1.08 | 0.437 | 0.466 | 0.442 | 0.434
4 | NCI-H1437 | 0.429 | 0.303 | 0.331 | 0.287 | 1.14 | 1.1 | 1.06 | 1.11 | 1.02 | 1 | 1.03 | 1.1 | 0.615 | 0.502 | 0.588 | 0.518 | 0.689 | 0.636 | 0.628 | 0.595
5 | NCI-H1651 | 0.352 | 0.329 | 0.3 | 0.31 | 0.455 | 0.557 | 0.459 | 0.478 | 0.905 | 0.731 | 0.664 | 0.66 | 0.81 | 0.804 | 0.795 | 0.949 | 0.19 | 0.177 | 0.205 | 0.165
6 | NCI-H1666 | 0.568 | 0.567 | 0.577 | 0.537 | 0.881 | 0.804 | 0.911 | 0.778 | 0.966 | 0.927 | 0.897 | 0.864 | 0.823 | 0.882 | 0.711 | 0.81 | 0.763 | 0.793 | 0.793 | 0.827
7 | NCI-H1734 | 0.331 | 0.297 | 0.391 | 0.379 | 0.498 | 0.537 | 0.543 | 0.39 | 0.224 | 0.192 | 0.178 | 0.187 | 0.625 | 0.678 | 0.691 | 0.685 | 0.621 | 0.562 | 0.649 | 0.539
8 | NCI-H1755 | 0.647 | 0.547 | 0.592 | 0.614 | 0.492 | 0.422 | 0.447 | 0.402 | 0.418 | 0.47 | 0.247 | 0.443 | 0.75 | 0.811 | 0.798 | 0.72 | 0.888 | 0.922 | 0.832 | 0.863
9 | NCI-H1792 | 0.263 | 0.288 | 0.369 | 0.309 | 0.786 | 0.725 | 0.67 | 0.176 | 0.399 | 0.429 | 0.388 | 0.446 | 0.508 | 0.37 | 0.383 | 0.338 | 0.481 | 0.532 | 0.416 | 0.416
10 | NCI-H1793 | 0.388 | 0.252 | 0.317 | 0.289 | 0.395 | 0.48 | 0.388 | 0.213 | 0.281 | 0.307 | 0.169 | 0.168 | 0.403 | 0.402 | 0.438 | 0.428 | 0.989 | 1.08 | 0.731 | 0.427
11 | NCI-H1915 | 0.387 | 0.396 | 0.375 | 0.334 | 0.654 | 0.679 | 0.671 | 0.709 | 0.711 | 0.75 | 0.613 | 0.797 | 0.329 | 0.312 | 0.258 | 0.271 | 0.273 | 0.285 | 0.262 | 0.248
12 | NCI-H1944 | 0.238 | 0.198 | 0.184 | 0.165 | 0.507 | 0.616 | 0.493 | 0.56 | 0.764 | 0.872 | 0.67 | 0.773 | 0.419 | 0.398 | 0.39 | 0.413 | 0.431 | 0.409 | 0.444 | 0.331
13 | NCI-H1975 | 0.393 | 0.392 | 0.385 | 0.254 | 0.818 | 0.756 | 0.673 | 0.654 | 0.226 | 0.19 | 0.123 | 0.223 | 0.344 | 0.388 | 0.357 | 0.416 | 0.819 | 0.978 | 0.794 | 0.494
14 | NCI-H1993 | 0.539 | 0.509 | 0.486 | 0.488 | 0.762 | 0.77 | 0.699 | 0.5 | 0.807 | 0.821 | 0.866 | 0.856 | 0.484 | 0.537 | 0.447 | 0.462 | 0.997 | 1.11 | 0.885 | 0.891
15 | NCI-H2085 | 0.756 | 0.655 | 0.781 | 0.654 | 0.938 | 0.998 | 0.93 | 0.623 | 0.42 | 0.464 | 0.371 | 0.42 | 0.526 | 0.53 | 0.471 | 0.608 | 0.817 | 0.891 | 0.804 | 0.653
